Literature values in patent publication US8546585B2, “Process for preparing eprosartan mesylate” (Zhejiang Huahai Pharmaceutical Co., Ltd., priority 2008, dated 2013).
Structures can show the parent of a compound that is named as a salt.

Assays:
[1] = not given; remark: listed apart in the source
[2] = mild, moderate and severe hypertensive patients
[3] = patients with liver and kidney dysfunction, or fullness after administration

- protein binding rate: 98%
- absorption ([1]; administrated orally): rapidly absorbed
- AUC (Area Under Curve) elevated by [1, 3]: about 50%
- blood peak concentration elevated by [1, 3]: about 50%
SMILES: CCCCc1ncc(/C=C(\Cc2cccs2)C(=O)O)n1Cc1ccc(C(=O)O)cc1 [Eprosartan mesylate]
- lowering of systolic and diastolic pressures [2]: potent to lower systolic and diastolic pressures
- safety and tolerability [2]: safe and tolerable
